According to ChEMBL document CHEMBL1201862, “PubChem BioAssay data set” (2004):
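Protocol summary: plate cells (96-well), add compound at 5 concentrations, incubate 48 h, interpolate endpoints linearly. The concentration for 50% growth inhibition is given as GI50.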 Activity calls are given as the source filed them. No stated cut-off is given here; in the data, active = GI50 up to about 1.1 µM and inactive = higher.

Columns and labels:
Experiment in all cases: inhibition of tumour cell growth, NCI panel, 48 h
[1] = test system: UACC-62
[2] = test system: OVCAR-3
[3] = test system: RXF 393
[4] = test system: CAKI-1
[5] = test system: A549
[6] = test system: OVCAR-5
[7] = test system: NCI-H226
[8] = test system: NCI-H522
[9] = test system: DU-145
[10] = test system: A498
[11] = test system: KM12
[12] = test system: SK-OV-3
[13] = test system: HOP-92
[14] = test system: HCT-116
[15] = test system: SF-268
[16] = test system: 786-0
[17] = test system: MOLT-4
[18] = test system: UO-31
[19] = test system: Malme-3M
[20] = test system: SNB-75

Measured: GI50

COC(=O)CNC(=O)CCSc1nnc(COc2ccc(Cl)cc2)n1-c1ccccc1
inactive: [1] 20.2 µM | [2] 30.9 µM | [3] 25.8 µM | [4] 12 µM | [5] 68.2 µM | [6] 47.8 µM | [7] 16 µM | [8] 15.4 µM | [9] 20.9 µM | [10] > 100 µM | [11] 34 µM | [12] > 100 µM | [13] 33.6 µM | [14] 37.5 µM | [15] 20.3 µM | [16] 20.2 µM | [17] 24.7 µM | [18] 34.8 µM | [19] 25.8 µM | [20] 20.4 µM

COc1ccc(N2CC(=O)N(C(=O)COc3ccc(OCC(=O)N4C(=O)CN(c5ccc(OC)cc5)C4=S)cc3)C2=S)cc1
inactive: [1] 70.8 µM | [3] > 100 µM | [4] > 100 µM | [5] 46.9 µM | [6] > 100 µM | [7] > 100 µM | [8] 32.6 µM | [9] > 100 µM | [10] > 100 µM | [11] 39.1 µM | [12] > 100 µM | [13] > 100 µM | [14] 24 µM | [15] > 100 µM | [16] > 100 µM | [17] 30 µM | [18] > 100 µM | [19] 4.47 µM | [20] > 100 µM

CC(C)C(N)(C(=O)O)c1ccccc1 (stereo not given)
inactive: [1] > 100 µM | [2] > 100 µM | [3] > 100 µM | [4] > 100 µM | [5] > 100 µM | [6] > 100 µM | [7] > 100 µM | [8] > 100 µM | [9] > 100 µM | [10] > 100 µM | [11] > 100 µM | [12] > 100 µM | [13] > 100 µM | [14] > 100 µM | [15] > 100 µM | [16] > 100 µM | [18] > 100 µM | [19] > 100 µM | [20] > 100 µM

COC(=O)c1ccc(-n2c(C)nc(=O)c(-c3ccccc3)c2C)cc1
inactive: [2] > 100 µM | [3] > 100 µM | [4] > 100 µM | [5] > 100 µM | [6] > 100 µM | [7] > 100 µM | [8] > 100 µM | [9] > 100 µM | [10] > 100 µM | [11] > 100 µM | [12] > 100 µM | [13] > 100 µM | [14] > 100 µM | [15] > 100 µM | [16] > 100 µM | [17] > 100 µM | [18] > 100 µM | [19] > 100 µM | [20] > 100 µM

O=C1CSC2(CCN(CCCN3c4ccccc4Sc4ccc(Cl)cc43)CC2)N1
inactive: [1] 11.5 µM | [2] 10.4 µM | [3] 3.07 µM | [4] 12.5 µM | [5] 10.1 µM | [6] 11.9 µM | [7] 17.6 µM | [8] 10.1 µM | [9] 11.9 µM | [10] 15.5 µM | [11] 6.65 µM | [12] 9.77 µM | [13] 5.55 µM | [14] 6.14 µM | [15] 8.34 µM | [16] 11.2 µM | [18] 6.75 µM | [19] 12 µM | [20] 7.43 µM

CNc1c2c(c3nc4ccccc4c4c3c1N=C4)NCCC2=O [PLAKINIDINE A]
inactive: [2] 8.57 µM | [3] 5.41 µM | [4] 4.69 µM | [5] 3.52 µM | [6] 5.83 µM | [7] 7.43 µM | [8] 3.27 µM | [9] > 10 µM | [10] 2.67 µM | [11] 4.79 µM | [12] 8.04 µM | [13] 4.51 µM | [14] 1.77 µM | [15] 3.33 µM | [16] 2.41 µM | [17] 1.32 µM | [18] 3.56 µM | [19] 4.65 µM | [20] 2.87 µM
